Measured values reported in article PMC11654702, “Mechanisms underlying modulation of human GlyRα3 by Zn^2+ and pH” (Science Advances, 2024).

T1: GlyRα3 (Homo sapiens, UniProt O75311)
T1 construct: gene GLRA3; full-length, C-terminal thrombin site and 8x histidine tag, homopentamer in peptidisc (cryo-EM); full-length in Xenopus oocytes (TEVC)
T1 sequence (O75311 34-464): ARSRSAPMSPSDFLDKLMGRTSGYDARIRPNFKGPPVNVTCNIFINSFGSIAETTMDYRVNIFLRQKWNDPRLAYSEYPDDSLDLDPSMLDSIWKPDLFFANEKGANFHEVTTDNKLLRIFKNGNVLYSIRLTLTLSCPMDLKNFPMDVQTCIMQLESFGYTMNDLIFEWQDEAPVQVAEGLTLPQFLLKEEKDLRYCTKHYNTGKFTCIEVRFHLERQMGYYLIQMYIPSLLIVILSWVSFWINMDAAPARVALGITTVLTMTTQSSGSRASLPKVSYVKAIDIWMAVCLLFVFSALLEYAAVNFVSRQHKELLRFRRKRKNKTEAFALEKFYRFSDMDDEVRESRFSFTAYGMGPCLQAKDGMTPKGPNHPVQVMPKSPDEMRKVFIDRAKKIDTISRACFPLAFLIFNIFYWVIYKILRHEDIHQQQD

B1: full-length human GlyRα3 (receptor, UniProt O75311 34-464, looked up)
chain: ARSRSAPMSPSDFLDKLMGRTSGYDARIRPNFKGPPVNVTCNIFINSFGSIAETTMDYRVNIFLRQKWNDPRLAYSEYPDDSLDLDPSMLDSIWKPDLFFANEKGANFHEVTTDNKLLRIFKNGNVLYSIRLTLTLSCPMDLKNFPMDVQTCIMQLESFGYTMNDLIFEWQDEAPVQVAEGLTLPQFLLKEEKDLRYCTKHYNTGKFTCIEVRFHLERQMGYYLIQMYIPSLLIVILSWVSFWINMDAAPARVALGITTVLTMTTQSSGSRASLPKVSYVKAIDIWMAVCLLFVFSALLEYAAVNFVSRQHKELLRFRRKRKNKTEAFALEKFYRFSDMDDEVRESRFSFTAYGMGPCLQAKDGMTPKGPNHPVQVMPKSPDEMRKVFIDRAKKIDTISRACFPLAFLIFNIFYWVIYKILRHEDIHQQQD
notes: Glycine receptor subunit alpha-3, human, UniProt O75311, full-length codon-optimized GLRA3 gene; last residue printed as Asp431 on mature numbering; ICD Lys312-Arg385 not modelled in the maps; Homopentamer reconstituted in peptidisc (NSP peptide scaffold); the models are numbered without it; also called hGlyRα3; glycine receptor α3; source: Sf9 cells (baculovirus, pFastBac1), purified (DDM …)

How the values were obtained:
[1] = target: T1, GlyRα3; test: cryo-EM structures with glycine density; EC50 by two-electrode voltage clamp in Xenopus oocytes; type: cell-based
[2] = target: the molecule itself; test: cryo-EM structure; GlyRα3 in peptidisc, 0.3 to 1 mg/ml, 20 mM Hepes, 150 mM NaCl, pH 8.0 or pH 6.4; 0.1 or 1 mM glycine, without or with 1 or 100 μM ZnCl2; final maps refined with C5 symmetry

| Molecule | EC50 [1] [µM] | stoichiometry N [2] |
| --- | --- | --- |
| NCC(=O)O [glycine] | 213 ± 13 |  |
| B1 |  | 5 |
